Measured values taken from patent US9180164B2, “Compounds and methods of modulating angiogenesis” (THE CLEVELAND CLINIC FOUNDATION, priority 2011, dated 2015).

Assays:
HUVECs = test: Cell adhesion assay with inhibiting peptide; assay type: cell-based, Human; conditions: HUVECs on integrin ligand coated plates
Protocol: Cells were washed twice with sterile phosphate buffered saline (PBS) and re-suspended in serum-free DMEN. The cell suspensions were added to integrin ligand-coated wells and placed in a humidified incubator for 45 min. The wells were gently washed three times with DMEM and photographs were taken. The numbers of attached and spread cells per field were counted.
To examine endothelial cell adhesion to various ECM proteins following inhibition of expression of specific integrin subunits, HUVECs were plated on various integrin ligand coated plates and ability of EC to adhere to the distinct extracellular matrix components were tested after administration of a control peptide (YGRKKRRQRRR G DTANNPL FKEATSTFT-COOH) (SEQ ID NO: 43) or with equal amount of beta-3 integrin cytoplasmic domain inhibitory peptide (YGRKKRRQRRR G DTANNPLYpKEATSTFT-COOH) (SEQ ID NO: 44).

neovascularization = test: Matrigel plug assay, hemoglobin extracted from Matrigel; assay type: in vivo, mice; conditions: 50 mM peptide in Matrigel with VEGF (60 ng/mL), subcutaneous, 7 days
Protocol: Matrigel plug assays were performed in age- and sex-matched C57/B16 background mice. […] After 7 days, the animals were euthanized and dissected. Matrigel plugs were removed and digested using 5 mL Drabkin reagent and neovascularization was assessed using a hemoglobin assay as per the manufacturer's protocol (FIG. 16).
Angiogenic response was measured based on the amount of hemoglobin extracted from Matrigel.

endothelial cells = test: VEGF-induced endothelial cell migration with inhibiting peptide; assay type: cell-based
Protocol: To examine the effect of the inhibiting peptide on endothelial cell migration, VEGF-induced migratory activity of endothelial cells was measured after administration of a control peptide (YGRKKRRQRRR G DTANNPL FKEATSTFT-COOH) (SEQ ID NO: 43) or with equal amount of beta-3 integrin cytoplasmic domain inhibitory peptide (YGRKKRRQRRR G DTANNPLYpKEATSTFT-COOH) (SEQ ID NO: 44) to the endothelial cells.

YGRKKRRQRRR G DTANNPL Yp KEATSTFT-COOH
effect on cell adhesion compared to a control peptide (HUVECs): no effect on cell adhesion
hemoglobin concentration lower in Matrigel plugs compared to control peptide (neovascularization): at least 3.5 fold
VEGF-induced endothelial cell migration compared to the control peptide (endothelial cells): prevented endothelial cell migration
capillary formation compared to the control peptide (endothelial cells): inhibited capillary formation
